Assay results published in patent US5198336A, “Bioassay for chemicals which generate prooxidant states” (Wisconsin Alumni Research Foundation, priority 1989, dated 1993).

Tested on: submitochondrial electron transport particles (ETP) having competent electron transport enzyme complex I
Assay: facilitated electron withdrawal bioassay with SOD-depleted submitochondrial electron transport particles (adrenochrome formation, absorbance at 480 nm)
Format: biochemical, bovine (beef heart)
Conditions: for lowest observable effect concentration (LOEC): concentration giving a response three standard deviations above mean control, HEPES buffer pH 7.2, 1.5 mM epinephrine, 0.5 mg ETP, 125 uM NADH, 10 minute incubation; for lowest observable effect concentration (LOEC) / relative potency to induce a prooxidant state (FIG. 4): 0.2 ug per ml antimycin A; for relative potency to induce a prooxidant state (FIG. 4): ranking among the five agents tested, 0 to 10 ug per ml toxicant
Method: The practice of the present invention began with the creation of submitochondrial electron transport particles (ETP) isolated from beef hearts. These are also referred to as submitochondrial particles. The mitochondria were isolated from bovine heart muscle by the method of Blair, supra. The superoxide dismutase-depleted ETP particles were prepared by sonicating the thawed mitochondria for two minutes in a medium containing 0.25M sucrose and 2 mM EDTA, pH 7.5, at a protein concentration of 25 mg per ml. The result was diluted with an equal volume of 0.25M sucrose and adjusted to a pH of 7.5 after which it was centrifuged for 40 minutes at 105,000×g. The resulting ETP particles were washed in ten volumes of 0.25M sucrose and sedimented by centrifugation. After treatment the ETP particles were stored frozen in buffered 0.25M sucrose at a protein concentration of 20 mg per ml.
The test medium contained 50 mM HEPES buffer, 1.5 mM epinephrine and 0.4 uM antimycin. The medium was adjusted to a pH of 7.2 with 5M potassium hydroxide and dispensed in 1.8 ml aliquots into 1-CM path length glass cuvettes. Either aqueous diluent or the test sample was added in a volume of 20-50 ul so that the final concentration ranged between 0 and 100 ug per ml. Following the addition of 0.5 mg of the SOD-depleted ETP particles suspended in a 0.1 ml 50 mM HEPES buffer, the cuvettes were covered with parafilm and inverted three times to mix the contents. First a base line absorbance reading was taken by the spectrophotometer set for 480 nm.
After the base line reading was taken, the reaction was started by adding 50 ul of 5 mM NADH. The final absorbance readings were then taken after a 10 minute incubation at room temperature. The final absorbance readings were used to calculate a lowest observable effect concentration (LOEC) for each of the chemicals tested. […] It is intended that the LOEC value be analogous to the limited detection value used for environmental samples subject to conventional analysis.
All experiments summarized in this table and in FIG. 4 were conducted with 2 ml HEPES buffer, a pH of 7.2, 1.5 mM epinephrine, 0.2 ug per ml antimycin A, 0.5 mg ETP, 125 uM NADH and 0 to 10 ug per ml of the test toxicant.

| Compound | lowest observable effect concentration (LOEC) | relative potency to induce a prooxidant state (FIG. 4) | effect of antimycin A or rotenone on the response to paraquat (FIG. 3) (with vs without 0.2 ug per ml antimycin A or 0.2 ug per ml rotenone, absorbance at 480 nm) |
| --- | --- | --- | --- |
| O=[N+]([O-])c1cc[n+]([O-])c2ccccc12 [4-Nitroquinoline-N-oxide] | 1600 µg/L |  |  |
| COc1cccc2c1C(=O)c1c(O)c3c(c(O)c1C2=O)C[C@@](O)(C(=O)CO)C[C@@H]3O[C@H]1C[C@H](N)[C@H](O)[C@H](C)O1 [Adriamycin] | 6300 µg/L | weakest |  |
| c1cc[n+]2c(c1)-c1cccc[n+]1CC2 [Diquat] | 1600 µg/L |  |  |
| C[n+]1ccc(-c2cc[n+](C)cc2)cc1 [Paraquat] | 3500 µg/L |  | increases the rate at which paraquat can draw electrons from the electron transport cascade |
| O=S(=O)(O)c1ccccc1N=Nc1c(S(=O)(=O)O)cc2cc(S(=O)(=O)O)c(N=Nc3ccccc3S(=O)(=O)O)c(O)c2c1O [Sulfonazo III] | 320 µg/L | strongest inducer of the prooxidant states |  |
